Reference: ChEMBL document CHEMBL1137017, “In vitro antiviral activity and cross-resistance profile of PL-100, a novel protease inhibitor of human immunodeficiency virus type 1” (Antimicrob Agents Chemother, 2007)

Columns and labels:
[1] = test system: Human immunodeficiency virus 1; assay: Resistance index, ratio of EC50 for HIV1 with protease 46I mutation to EC50 for wild type HIV1 NL4-3 in HEK293 cells after 48 hrs by replication-deffective luciferase reporter gene-based phenotypic assay; assay type: functional
[2] = test system: Human immunodeficiency virus 1; assay: Resistance index, ratio of EC50 for HIV1 with protease 46L/48V/82A/90M mutation to EC50 for wild type HIV1 NL4-3 in HEK293 cells after 48 hrs by replication-deffective luciferase reporter gene-based phenotypic assay; assay type: functional
[3] = test system: Human immunodeficiency virus 1; assay: Resistance index, ratio of EC50 for HIV1 with protease 33F/54V/73S/82A/90M mutation to EC50 for wild type HIV1 NL4-3 in HEK293 cells after 48 hrs by replication-deffective luciferase reporter gene-based phenotypic assay; assay type: functional
[4] = test system: Human immunodeficiency virus 1; assay: Resistance index, ratio of EC50 for HIV1 with protease 84V/90M mutation to EC50 for wild type HIV1 NL4-3 in HEK293 cells after 48 hrs by replication-deffective luciferase reporter gene-based phenotypic assay; assay type: functional
[5] = test system: Human immunodeficiency virus 1; assay: Resistance index, ratio of EC50 for HIV1 with protease 24I/33F/54V/82A/84V mutation to EC50 for wild type HIV1 NL4-3 in HEK293 cells after 48 hrs by replication-deffective luciferase reporter gene-based phenotypic assay; assay type: functional
[6] = test system: Human immunodeficiency virus 1; assay: Resistance index, ratio of EC50 for non-B type HIV1 with protease 32I/47A mutation to EC50 for wild type HIV1 NL4-3 in HEK293 cells after 48 hrs by replication-deffective luciferase reporter gene-based phenotypic assay; assay type: functional
[7] = test system: Human immunodeficiency virus 1; assay: Resistance index, ratio of EC50 for HIV1 with protease 33F/54L/82A/84V mutation to EC50 for wild type HIV1 NL4-3 in HEK293 cells after 48 hrs by replication-deffective luciferase reporter gene-based phenotypic assay; assay type: functional
[8] = test system: Human immunodeficiency virus 1; assay: Resistance index, ratio of EC50 for HIV1 with protease 46I/82T/84V mutation to EC50 for wild type HIV1 NL4-3 in HEK293 cells after 48 hrs by replication-deffective luciferase reporter gene-based phenotypic assay; assay type: functional
[9] = test system: Human immunodeficiency virus 1; assay: Resistance index, ratio of EC50 for HIV1 with protease 24I/33F/46I/54L/82A mutation to EC50 for wild type HIV1 NL4-3 in HEK293 cells after 48 hrs by replication-deffective luciferase reporter gene-based phenotypic assay; assay type: functional
[10] = Inhibition of pig pepsin; set-up: species or system Sus scrofa
[11] = test system: Human immunodeficiency virus 1; assay: Resistance index, ratio of EC50 for HIV1 with protease 33F/50V mutation to EC50 for wild type HIV1 NL4-3 in HEK293 cells after 48 hrs by replication-deffective luciferase reporter gene-based phenotypic assay; assay type: functional
[12] = test system: Human immunodeficiency virus 1; assay: Resistance index, ratio of EC50 for HIV1 with protease 33F/46L/54V/82A/84V/90M mutation to EC50 for wild type HIV1 NL4-3 in HEK293 cells after 48 hrs by replication-deffective luciferase reporter gene-based phenotypic assay; assay type: functional
[13] = test system: Human immunodeficiency virus 1; assay: Resistance index, ratio of EC50 for HIV1 with protease 33F/54V/73S/82A/84V/90M mutation to EC50 for wild type HIV1 NL4-3 in HEK293 cells after 48 hrs by replication-deffective luciferase reporter gene-based phenotypic assay; assay type: functional
[14] = test system: Human immunodeficiency virus 1; assay: Resistance index, ratio of EC50 for HIV1 with protease 32I/46L/47V/84V mutation to EC50 for wild type HIV1 NL4-3 in HEK293 cells after 48 hrs by replication-deffective luciferase reporter gene-based phenotypic assay; assay type: functional
[15] = test system: Human immunodeficiency virus 1; assay: Resistance index, ratio of EC50 for non-B type HIV1 with protease 46I/47V/84V mutation to EC50 for wild type HIV1 NL4-3 in HEK293 cells after 48 hrs by replication-deffective luciferase reporter gene-based phenotypic assay; assay type: functional
[16] = test system: Human immunodeficiency virus 1; assay: Resistance index, ratio of EC50 for HIV1 with protease 46I/50V mutation to EC50 for wild type HIV1 NL4-3 in HEK293 cells after 48 hrs by replication-deffective luciferase reporter gene-based phenotypic assay; assay type: functional
[17] = test system: Human immunodeficiency virus 1; assay: Resistance index, ratio of EC50 for HIV1 with protease 30N/88D/90M mutation to EC50 for wild type HIV1 NL4-3 in HEK293 cells after 48 hrs by replication-deffective luciferase reporter gene-based phenotypic assay; assay type: functional
[18] = test system: Human immunodeficiency virus 1; assay: Resistance index, ratio of EC50 for HIV1 with protease 32I/46I/47V/50L mutation to EC50 for wild type HIV1 NL4-3 in HEK293 cells after 48 hrs by replication-deffective luciferase reporter gene-based phenotypic assay; assay type: functional
[19] = test system: Human immunodeficiency virus 1; assay: Resistance index, ratio of EC50 for HIV1 with protease 37T/41K/70E mutation to EC50 for wild type HIV1 NL4-3 in HEK293 cells after 48 hrs by replication-deffective luciferase reporter gene-based phenotypic assay; assay type: functional
[20] = test system: Human immunodeficiency virus 1; assay: Resistance index, ratio of EC50 for HIV1 with protease 33F/46I/53L/82A/84V mutation to EC50 for wild type HIV1 NL4-3 in HEK293 cells after 48 hrs by replication-deffective luciferase reporter gene-based phenotypic assay; assay type: functional
[21] = test system: Human immunodeficiency virus 1; assay: Resistance index, ratio of EC50 for HIV1 with protease 54V/82A mutation to EC50 for wild type HIV1 NL4-3 in HEK293 cells after 48 hrs by replication-deffective luciferase reporter gene-based phenotypic assay; assay type: functional
[22] = test system: Human immunodeficiency virus 1; assay: Resistance index, ratio of EC50 for HIV1 with protease 46L/50L/54V/82A mutation to EC50 for wild type HIV1 NL4-3 in HEK293 cells after 48 hrs by replication-deffective luciferase reporter gene-based phenotypic assay; assay type: functional
[23] = test system: Human immunodeficiency virus 1; assay: Resistance index, ratio of EC50 for HIV1 with protease 33F/54V/82A/84V/90M mutation to EC50 for wild type HIV1 NL4-3 in HEK293 cells after 48 hrs by replication-deffective luciferase reporter gene-based phenotypic assay; assay type: functional
[24] = test system: Human immunodeficiency virus 1; assay: Resistance index, ratio of EC50 for HIV1 with protease 46I/50V/90M mutation to EC50 for wild type HIV1 NL4-3 in HEK293 cells after 48 hrs by replication-deffective luciferase reporter gene-based phenotypic assay; assay type: functional
[25] = Selectivity index, ratio of CC50 for human MT4 cells to EC50 for HIV1 NL4-3; assay type: toxicity, cell-based; conditions: read-out: Ratio CC50/EC50
[26] = test system: Human immunodeficiency virus 1; assay: Resistance index, ratio of EC50 for HIV1 with protease 33I/46I/84V/90M mutation to EC50 for wild type HIV1 NL4-3 in HEK293 cells after 48 hrs by replication-deffective luciferase reporter gene-based phenotypic assay; assay type: functional
[27] = test system: Human immunodeficiency virus 1; assay: Resistance index, ratio of EC50 for HIV1 with protease 30N/33F/46L/54L/84V/88D mutation to EC50 for wild type HIV1 NL4-3 in HEK293 cells after 48 hrs by replication-deffective luciferase reporter gene-based phenotypic assay; assay type: functional
[28] = target: Protease (Human immunodeficiency virus 1) (UniProt Q9YQ12); assay: Inhibition of HIV1 3B protease-mediated gag polyprotein processing in H9 cells assessed as decrease in p24 level by Western blotting; assay type: cell-based
Cathepsin D = Cathepsin D (Homo sapiens, UniProt P07339); assay: Inhibition of human cathepsin D
Sequence of Cathepsin D (P07339 65-162 limits assumed): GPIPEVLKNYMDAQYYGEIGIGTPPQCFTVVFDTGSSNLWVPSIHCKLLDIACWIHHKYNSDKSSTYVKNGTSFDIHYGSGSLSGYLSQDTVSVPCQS
Sequence of Cathepsin D (P07339 169-412 limits assumed): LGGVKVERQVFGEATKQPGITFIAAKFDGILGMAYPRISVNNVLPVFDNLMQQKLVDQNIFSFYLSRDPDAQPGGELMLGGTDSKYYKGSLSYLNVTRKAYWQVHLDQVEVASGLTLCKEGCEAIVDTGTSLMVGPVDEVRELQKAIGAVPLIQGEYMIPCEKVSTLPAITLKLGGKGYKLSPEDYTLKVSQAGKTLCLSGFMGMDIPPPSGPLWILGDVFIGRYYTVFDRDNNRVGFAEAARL

Sequence of Protease (Human immunodeficiency virus 1) (Q9YQ12 as listed by the source): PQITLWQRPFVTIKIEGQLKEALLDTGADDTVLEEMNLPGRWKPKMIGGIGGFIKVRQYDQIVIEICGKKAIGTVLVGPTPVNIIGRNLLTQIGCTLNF

Compound | Ratio EC50 [1] | Ratio EC50 [2] | Ratio EC50 [3] | Ratio EC50 [4] | Ratio EC50 [5] | Ratio EC50 [6] | Ratio EC50 [7] | Ratio EC50 [14] | Ratio EC50 [15] | Ratio EC50 [16] | Ratio EC50 [18] | Ratio EC50 [19] | Ratio EC50 [20] | Ratio EC50 [21] | Ratio EC50 [22] | Ratio EC50 [23] | Ratio EC50 [24] | selectivity ratio [25] | Ratio EC50 [26] | Ratio EC50 [27] | also measured
COC(=O)N[C@H](C(=O)NCCCC[C@@H](CO)N(CC(C)C)S(=O)(=O)c1ccc(N)cc1)C(c1ccccc1)c1ccccc1 [PPL-100] | 1.5 | 7.5 | 5.3 | 2.3 | 4.2 | 1.4 | 31.2 | 0.6 | 4.3 | 0.8 | 1.1 | 1.9 | 17.8 | 1.8 | 3.2 | 9.6 | 1.4 | 2310 | 3.4 | 23.2 | Ratio EC50 [8]: 1.2; Ratio EC50 [9]: 6.4; IC50 [10]: > 50 µM; Ratio EC50 [11]: 2.7; Ratio EC50 [12]: 18.4; Ratio EC50 [13]: 37.2; Ratio EC50 [17]: 1.4; Activity [28]: Dose-dependent effect; IC50 (Cathepsin D): > 50 µM
Cc1c(O)cccc1C(=O)N[C@@H](CSc1ccccc1)[C@H](O)CN1C[C@H]2CCCC[C@H]2C[C@H]1C(=O)NC(C)(C)C | 1.6 | 30.8 | 20 | 12.1 | 31.4 | 3.1 | 17.2 | 7.8 | 5.1 | 1.3 | 3.5 | 1.9 | 11.1 | 12.1 | 11.8 | 21.1 | 19.4 | 276 | 28.5 | 400 | Ratio EC50 [8]: 1.6; Ratio EC50 [9]: 8.1; Ratio EC50 [11]: 3.6; Ratio EC50 [12]: 31.4; Ratio EC50 [13]: 172.1; Ratio EC50 [17]: 42.1
COC(=O)N[C@H](C(=O)N[C@@H](Cc1ccccc1)[C@@H](O)CN(Cc1ccc(-c2ccccn2)cc1)NC(=O)[C@@H](NC(=O)OC)C(C)(C)C)C(C)(C)C [ATAZANAVIR] | 0.7 | 35.4 | 11.9 |  |  | 1 | 44.5 | 25 | 7.1 | 0.4 | 81.2 | 1.5 | 18.3 | 3.9 | 68.9 | 24.7 | 1.2 | 17800 | 7.5 | 66.1 | 
